Results as given in patent US20060029690A1, “Buckwheat compound and method of obtaining the same for treatment of hyperglycemia” (priority 2004, published 2006).
Read-outs that look alike come from different tables or passages of the source.

How the values were obtained:
STZ diabetic rats [1] = conditions: 7 days oral, dosage 0.2 g/kg
Procedure: The mice were divided according to the blood glucose concentration under fasting conditions. The difference between the average blood glucose concentrations of the 4 groups of rats was less than 10 mg/dl.
At day 7, fasting blood glucose concentration was tested after 2.5 and 5 hours of fasting. The change of glucose concentration by percentage was compared against the control group.

alloxan diabetic mice [2] = assay: Glucose tolerance test and AUC in alloxan diabetic mice (day 19 and day 22); format: in vivo; conditions: for Blood glucose, glucose tolerance test, 0 min: metformin 200 mg/kg, others 5 g/kg
Procedure: (§1) The animals were made diabetic by a single intravenous injection of 70 mg/kg alloxan into the tail vein. After a period of 4 days, the treated mice were fasted for 2 hours, then the blood sample was taken from the treated mice intravenously. The blood glucose concentration was determined using Glucose Oxidase Peroxidase method. The mice with the blood glucose concentration above 200 mg/dl were marked diabetic mice and were used for further experiments.
(§2) The mice were divided into 5 groups, each group having 9 mice.
(§3) Group 5 received reagent (3) at the dose of 5 g/kg (p.o.).
(§4) At day 7 and 14, measurements of blood glucose concentration were taken after fasting for 2.5 and 5 hours. The change of glucose concentration by percentage was compared against the control group. Blood triglyceride and cholesterol concentrations were tested at day 14 (enzymatic method). Glucose tolerance test (2.0 g/kg, p.o.) was conducted at day 19. First, the mice were fasted for half an hour before the administration of control and test substances. Two and half hours later, the mice received glucose at the dose of 2 g/kg, po. Blood samples were taken at 0, 30, 60, 120 minutes after administration of the glucose. Blood glucose concentration (mg/dl) of the mice were determined and the related measurements of Area Under the Curve (AUC) were estimated. The serum superoxide dismutase (SOD) level of blood samples taken at 0 minute was tested. Glucose tolerance test was conducted again at day 22. The mice were fasted for 1 hour before administration. One and half hour after administration, the mice received glucose at the dose of 2 g/kg, po Blood samples were taken at 0, 30 60, 120 minutes.

STZ diabetic rats [3] = assay: Oral glucose tolerance test in STZ diabetic rats after 12 days (Example 2); format: in vivo, rat; conditions: 12 days oral, dosage 0.2 g/kg
Procedure: […] were divided according to the blood glucose concentration under fasting conditions.
The STZ diabetic rats were divided into 4 groups, each group having 10 rats.
At day 12, oral glucose tolerance tests (2.0 g/kg) were conducted. […] 1 hour later, the rats received glucose at the dose of 2 g/kg (p.o.). Blood samples were taken at 0, 30 and 120 min respectively.

alloxan diabetic mice [4] = assay: Blood lipid level (cholesterol, triglyceride) of alloxan diabetic mice at day 14; format: in vivo; conditions: metformin 200 mg/kg, others 5000 mg/kg
Procedure: as §1, §2, §3
as §4, with “The serum superoxide dismutase (SOD) level of blood samples taken at 0 minute was tested. Glucose tolerance test was conducted again at day 22. The mice were fasted for 1 hour before administration. One and half hour after administration, the mice received glucose at the dose of 2 g/kg, po Blood samples were taken at 0, 30 60, 120 minutes.” left out

STZ diabetic rats [5] = assay: Glucose tolerance test and AUC in STZ diabetic rats (day 14 and day 21)
Procedure: (§6) Male rats (Sprague-Dwaley, male), weighing 120 to 140 g, were purchased from VTLF Experiment Animal Technology Center Company Ltd., Beijing P. R. China The animals were made diabetic by a single intraperitoneal injection of streptozocin (freshly prepared in 0.1 M citrate buffer (pH 4.5) at the dose of 58 mg/kg). After a period of 4 days, the treated rats were fasted for 2.5 hours, then blood samples were taken from the treated rats intravenously. Blood glucose concentrations were determined using the Glucose Oxidase Peroxidase method. The rats with blood glucose concentrations above 190 mg/dl were marked as diabetic rats and used for further experiments.
(§7) The rats were divided into 6 groups of 10 rats per group. The difference in the average blood glucose concentrations among the 6 groups was less than 10 mg/dl. Group 1 served as the negative control and received water. […] The remaining four groups received reagents (1) to (4) as listed in Section 1.3.1 above. Reagents (1) and (2) were administered at a dose of 4 g/kg, while (3) and (4) were administered at a dose of 5 g/kg. The treatments were administered once every day.
At day 14, glucose tolerance tests were conducted. The rats were fasted for 1 hour before receiving the reagents at dosages of 2.0 g/kg (p.o.). Blood samples were taken at 0, 30, 60, and 120 min after receiving the reagents. Blood glucose concentrations (mg/dl) were determined and the related AUC were calculated.
At day 21, glucose tolerance tests were conducted. The rats were fasted for 1 hour, then received their respective reagents at the dose of 5 g/kg (p.o.). 2.5 hours after administration of reagent the rats received glucose at a dose of 2 g/kg (p.o.). Blood samples were taken at 0, 30, and 120 minutes after glucose administration. Blood glucose concentrations (mg/dl) were determined and the related AUC were calculated.

STZ diabetic rats [6] = assay: Non-fasting blood glucose, serum SOD activity and catalase (CAT) activity in STZ diabetic rats at day 19; format: in vivo, rat; conditions: oral administration for 19 days
Procedure: (§5) The treatments were administered once every day.
At day 19, blood samples were taken, and blood glucose concentrations without fasting, the activities of SOD and catalase (CAT) levels were determined.

alloxan diabetic mice [7] = assay: Blood glucose level of alloxan diabetic mice at day 7 and 14; format: in vivo; conditions: metformin 200 mg/kg
Procedure: as §1, §2, §3, §4

STZ diabetic rats [8] = assay: Fasting blood glucose concentration in STZ diabetic rats after 7 days (Example 1); format: in vivo, rat; conditions: oral administration for 7 days, metformin 0.2 g/kg, extracts 5.0 g/kg
Procedure: as §5
At day 7, the rats in groups 1, 2 and 3 were fasted and blood samples were taken at 2.5 hours and 5 hours after fasting began. Blood glucose concentrations (mg/dl) in these samples were then determined.

alloxan diabetic mice [9] = assay: Serum SOD level of alloxan diabetic mice at day 19; format: in vivo; conditions: metformin 200 mg/kg, others 5000 mg/kg
Procedure: as §1, §2, §3
as §4, with “The serum superoxide dismutase (SOD) level of blood samples taken at 0 minute was tested. Glucose tolerance test was conducted again at day 22. The mice were fasted for 1 hour before administration. One and half hour after administration, the mice received glucose at the dose of 2 g/kg, po Blood samples were taken at 0, 30 60, 120 minutes.” left out

[10] = Body weight of STZ diabetic rats after 9, 14 and 21 days; conditions: STZ diabetic rat; metformin 0.2 g/kg, flavonoids 4.0 g/kg, extracts 5.0 g/kg
Procedure: as §6, §7

[11] = day 19, glucose 2 g/kg p.o. 2.5 h after administration
[12] = day 22, glucose 2 g/kg p.o. 1.5 h after administration
[13] = oral administration for 14 days
[14] = oral administration for 21 days

With CN(C)C(=N)N=C(N)N [Metformin, metformin] the “fasting blood glucose concentration, 2.5 hr.” value (STZ diabetic rats [1]) was 357.2 ± 51.5 mg/dL, the “fasting blood glucose concentration, 5 hr.” value (STZ diabetic rats [1]) was 288.9 ± 68.8 mg/dL and the “reduction of blood glucose concentration by percentage, 2.5 hr.” value (STZ diabetic rats [1]; versus control) was “(11.7) %”. The “reduction of blood glucose concentration by percentage, 5 hr.” value (STZ diabetic rats [1]; versus control) was “(22.5) %”, the “Blood glucose, glucose tolerance test, 30 min” value (alloxan diabetic mice [2]; [11]) was 544.4 ± 45.3 mg/dL and the “Blood glucose, glucose tolerance test, 60 min” value (alloxan diabetic mice [2]; [11]) was 512.0 ± 76.9 mg/dL. The “Blood glucose, glucose tolerance test, 120 min” value (alloxan diabetic mice [2]; [11]) was 408.4 ± 71.3 mg/dL, the “Blood glucose, glucose tolerance test, 0 min” value (alloxan diabetic mice [2]; [11]) was 346.8 ± 68.3 mg/dL and the “Blood glucose, glucose tolerance test, 30 min” value (alloxan diabetic mice [2]; [12]) was 474.5 ± 74.4 mg/dL. For the same molecule, the “Blood glucose, glucose tolerance test, 60 min” value (alloxan diabetic mice [2]; [12]) was 450.7 ± 80.1 mg/dL, the “Blood glucose, glucose tolerance test, 120 min” value (alloxan diabetic mice [2]; [12]) was 358.6 ± 88.3 mg/dL and the “Blood glucose, glucose tolerance test, 0 min” value (alloxan diabetic mice [2]; [12]) was 377.6 ± 87.6 mg/dL. For the same molecule, the AUC (STZ diabetic rats [3]) was 800.9 ± 103.2 mg·h/dL, the “Fasting blood glucose concentration, oral glucose tolerance, 0 min” value (STZ diabetic rats [3]) was 398.4 ± 36.6 mg/dL and the “Fasting blood glucose concentration, oral glucose tolerance, 30 min” value (STZ diabetic rats [3]) was 458.4 ± 59.7 mg/dL. The “Fasting blood glucose concentration, oral glucose tolerance, 120 min” value (STZ diabetic rats [3]) was 323.9 ± 51.2 mg/dL, the “reduction of AUC by percentage” value (STZ diabetic rats [3]; versus control) was “(14.2) %” and the Blood cholesterol (alloxan diabetic mice [4]) was 159.8 ± 48.7 mg/dL. For the same molecule, the Blood triglyceride (alloxan diabetic mice [4]) was 132.8 ± 34.2 mg/dL, the “AUC of blood glucose” value (STZ diabetic rats [5]; [13]) was 652.5 ± 133.8 mg·h/dL and the “blood glucose concentration, glucose tolerance test, 30 min” value (STZ diabetic rats [5]; [13]) was 356.2 ± 93.3 mg/dL. The “blood glucose concentration, glucose tolerance test, 60 min” value (STZ diabetic rats [5]; [13]) was 320.9 ± 64.6 mg/dL, the “blood glucose concentration, glucose tolerance test, 120 min” value (STZ diabetic rats [5]; [13]) was 296.6 ± 72.6 mg/dL and the “blood glucose concentration, glucose tolerance test, 0 min” value (STZ diabetic rats [5]; oral administration for 14 days, metformin 0.2 g/kg, flavonoids 4.0 g/kg, extracts 5.0 g/kg) was 341.8 ± 44.8 mg/dL. For the same molecule, the “AUC of blood glucose” value (STZ diabetic rats [5]; [14]) was 645.4 ± 122.0 mg·h/dL, the “blood glucose concentration, oral glucose tolerance, 30 min” value (STZ diabetic rats [5]; [14]) was 358.0 ± 77.3 mg/dL and the “blood glucose concentration, oral glucose tolerance, 120 min” value (STZ diabetic rats [5]; [14]) was 279.8 ± 51.6 mg/dL. The CAT activity (STZ diabetic rats [6]) was 64.6 ± 12.5 U/gHb, the “Serum SOD activity” value (STZ diabetic rats [6]) was 164.8 ± 16.9 NU/ml and the “Non-fasting blood glucose concentration” value (STZ diabetic rats [6]; metformin 0.2 g/kg, flavonoids 4.0 g/kg, extracts 5.0 g/kg) was 340.5 ± 40.7 mg/dL. For the same molecule, the “effective in lowering blood glucose concentration in alloxan diabetic mice (in words)” value (alloxan diabetic mice [7]; continuously for 7 and 14 days, extracts 5 g/kg) was “significant glucose-lowering effect”, the “Blood glucose concentration at day 7, 2.5 hr after administering” value (alloxan diabetic mice [7]; day 7, 2.5 hr, p.o. once daily, extracts and flavonoid B 5000 mg/kg) was 216.8 ± 78.2 mg/dL and the “Blood glucose concentration at day 7, 5 hr after administering” value (alloxan diabetic mice [7]; day 7, 5 hr, p.o. once daily, others 5000 mg/kg) was 182.8 ± 88.1 mg/dL. The “Blood glucose concentration at day 14, 2.5 hr after administering” value (alloxan diabetic mice [7]; day 14, 2.5 hr, p.o. once daily, others 5000 mg/kg) was 281.5 ± 60.9 mg/dL, the “Blood glucose concentration at day 14, 5 hr after administering” value (alloxan diabetic mice [7]; day 14, 5 hr, p.o. once daily, others 5000 mg/kg) was 221.7 ± 65.9 mg/dL and the “blood glucose change by percentage, day 7, 2.5 hr” value (alloxan diabetic mice [7]; versus control group, day 7, 2.5 hr, others 5000 mg/kg) was 34%. The “blood glucose change by percentage, day 7, 5 hr” value (alloxan diabetic mice [7]; versus control group, day 7, 5 hr, others 5000 mg/kg) was 32.4%, the “blood glucose change by percentage, day 14, 2.5 hr” value (alloxan diabetic mice [7]; versus control group, day 14, 2.5 hr, others 5000 mg/kg) was 21.2% and the “blood glucose change by percentage, day 14, 5 hr” value (alloxan diabetic mice [7]; versus control group, day 14, 5 hr, others 5000 mg/kg) was 21.3%. The “Fasting blood glucose concentration, 5.0 hr.” value (STZ diabetic rats [8]; flavonoids 4.0 g/kg) was 185.6 ± 78.8 mg/dL, the “fasting blood glucose concentration, 2.5 hr.” value (STZ diabetic rats [8]; flavonoids A and B 4.0 g/kg) was 261.1 ± 45.7 mg/dL and the “Serum SOD” value (alloxan diabetic mice [9]) was 78.3 ± 26.5 u/mg. For the same molecule, the “weight at day 9” value [10] was 203.3 ± 22.3 g and the “weight at day 14” value [10] was 200.4 ± 29.4 g.
